The values below come from ChEMBL document CHEMBL1137272, “Discovery and synthesis of tetrahydroindolone derived semicarbazones as selective Kv1.5 blockers” (Bioorg Med Chem Lett, 2006).

SMILES strings stand for the structures. The source made the active and inactive calls. No cut-off for these calls is given here.

Experiment [1] deals with T1, Potassium voltage-gated channel subfamily A member 5 (Homo sapiens, UniProt P22460). In words: Inhibition of Kv1.5 expressed in LTK- cells by whole cell patch clamp assay at 1uM. The experiment is classed as functional, cell-based. (In patch-clamp work, channel activity is measured electrically.)
For experiment [2], the target named is T1, Potassium voltage-gated channel subfamily A member 5. In words: Inhibition of Kv1.5 expressed in LTK- cells by whole cell patch clamp assay. Type of experiment: functional, cell-based.
Experiment [3] has as its system Sus scrofa. In words: Prolonged right atrial refractory period in pigs after 15 minute iv infusion at 30mg/kg. The experiment is classed as functional, Cardiac atrium.
Experiment [4] has as its system Sus scrofa. In words: Prolonged ventricular refractory period in pigs after 15 minute iv infusion at 30mg/kg. The note with it: Cardiac ventricle. Type of experiment: functional, organism-based.
Experiment [5] has as its system Sus scrofa. Description: Prolonged right atrial refractory period in pigs after 15 minute iv infusion at 10mg/kg. Type of experiment: functional, Cardiac atrium.
For experiment [6], the system named is Sus scrofa. In words: Prolonged ventricular refractory period in pigs after 15 minute iv infusion at 10mg/kg. The experiment is classed as functional, organism-based. The note with it: Cardiac ventricle.
Experiment [7] deals with Voltage-gated L-type calcium channel (Homo sapiens, UniProt Q13936+Q13698+Q01668+O60840). Description: Inhibition of L-type calcium channel by FLIPR assay. The experiment is classed as functional.

T1 sequence (P22460 whole entry): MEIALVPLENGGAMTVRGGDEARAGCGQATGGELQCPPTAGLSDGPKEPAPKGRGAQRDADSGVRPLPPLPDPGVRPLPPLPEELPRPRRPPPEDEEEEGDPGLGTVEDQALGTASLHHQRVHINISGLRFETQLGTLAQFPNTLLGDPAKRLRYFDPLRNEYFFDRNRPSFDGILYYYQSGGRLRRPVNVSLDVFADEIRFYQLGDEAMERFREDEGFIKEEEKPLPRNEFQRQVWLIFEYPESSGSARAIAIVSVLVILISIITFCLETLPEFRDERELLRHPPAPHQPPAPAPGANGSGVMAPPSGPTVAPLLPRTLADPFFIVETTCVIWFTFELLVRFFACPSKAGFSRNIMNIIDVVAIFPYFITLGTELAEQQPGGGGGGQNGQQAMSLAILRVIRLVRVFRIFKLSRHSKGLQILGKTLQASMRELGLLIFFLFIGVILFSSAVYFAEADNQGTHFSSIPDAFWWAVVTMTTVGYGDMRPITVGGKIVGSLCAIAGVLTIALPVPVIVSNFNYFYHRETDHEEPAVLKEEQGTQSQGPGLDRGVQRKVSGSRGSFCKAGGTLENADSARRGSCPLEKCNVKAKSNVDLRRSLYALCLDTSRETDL

With `CCc1c2c(n(C)c1CC)CCC/C2=N\N(C)C(=O)Nc1ccc(Cl)cc1`, the inhibition (commonly the relative decrease from the control value, in per cent) in experiment [1] was 90%.
The compound `CCc1c2c(n(C)c1CC)CCC/C2=N\N(C)C(=O)Nc1ccc(C(C)=O)cc1` came in with an inhibition in experiment [1] of 90%. The IC50 (commonly the concentration at which inhibition is half-maximal) in experiment [2] was 370 nM.
`CCc1c(C)[nH]c2c1/C(=N/NC(=O)Nc1ccc(C)cc1)CCC2` came in with an inhibition in experiment [1] of 50%.
The same measure, in the same setting: the value for `Cc1[nH]c2c(c1C(C)C)/C(=N/NC(=O)Nc1ccccc1)CCC2` was “inactive”; that for `Cc1[nH]c2c(c1C)/C(=N/NC(=O)Nc1ccccc1)CCC2` was 37%.
The compound `CCc1[nH]c2c(c1CC)/C(=N/NC(=O)Nc1ccc(Cl)cc1)CCC2` registered an inhibition in experiment [1] of 60%.
The compound `CCc1c(C)[nH]c2c1/C(=N/NC(=S)Nc1cccc(Cl)c1)CCC2` had an inhibition in experiment [1] of 78%.
Take `CCc1[nH]c2c(c1CC)/C(=N/NC(=O)Nc1ccc(OC)cc1)CCC2`: in experiment [1], the inhibition was determined as 85%.
In experiment [1], `CCc1[nH]c2c(c1CC)/C(=N/NC(=O)Nc1cccc(SC)c1)CCC2` registered an inhibition of 67%.
On the same count and under the same terms, with `CCc1[nH]c2c(c1CC)/C(=N/NC(=O)Nc1ccccc1)CCC2` the figure was 56%; with `CCc1c(C)[nH]c2c1/C(=N/N(C)C(=O)Nc1ccc(SC)cc1)CCC2`, 78%; with `O=C(N/N=C1\CCCc2[nH]ccc21)Nc1ccccc1`, “inactive”.
Regarding `CCc1c(C)[nH]c2c1/C(=N/N(C)C(=O)Nc1cccc(Cl)c1)CCC2`, the inhibition in experiment [1] was 89%.
`CCc1c(C)[nH]c2c1/C(=N/NC(=S)Nc1ccc(Cl)cc1)CCC2` gave an inhibition in experiment [1] of 71%.
`CCc1c2c(n(C)c1CC)CCC/C2=N\N(C)C(=O)Nc1ccccc1`: in experiment [1], the inhibition was 84%.
For `CCc1c(C)[nH]c2c1/C(=N/NC(=S)Nc1cccc(C(F)(F)F)c1)CCC2`, the inhibition in experiment [1] amounted to 91%. This compound also showed an IC50 in experiment [2] of 200 nM.
For `CCc1c(C)[nH]c2c1/C(=N/NC(=O)Nc1ccc(SC)cc1)CCC2` the same measures were 80% and 280 nM.
Taken in the same sequence, the figures for `O=C(N/N=C1\CCCc2[nH]ccc21)Nc1ccc(Cl)cc1` were 28% and 5600 nM.
In experiment [1], `CCc1c(C)[nH]c2c1/C(=N/NC(=S)Nc1ccc(C(F)(F)F)cc1)CCC2` returned an inhibition of 52%.
For `Cc1[nH]c2c(c1C(C)C)/C(=N/NC(=O)Nc1ccc(Cl)cc1)CCC2`, the inhibition entry in experiment [1] is “inactive”.
In experiment [1], `CCc1c(C)[nH]c2c1/C(=N/NC(=S)Nc1cccc(C)c1)CCC2` had an inhibition of 64%.
For `CCc1c(C)[nH]c2c1/C(=N/N(C)C(=O)Nc1ccc(Cl)cc1)CCC2`, the inhibition in experiment [1] worked out at 93%. In experiment [2], this compound had an IC50 of 130 nM. For the same compound, the “Prolonged ARP” value with Sus scrofa [3] was 18%. Further, in the experiment on Sus scrofa [4], the “Prolonged VRP” value was “inactive”.
`CCc1c(C)[nH]c2c1/C(=N/NC(=O)Nc1ccccc1)CCC2` gave an inhibition in experiment [1] of 85%. Also, the values for the IC50 in experiment [2] and in experiment [7] were 130 nM and greater than 30000 nM, respectively. The “Prolonged ARP” value in the experiment on Sus scrofa [5] stood at 28%. Further, the “Prolonged VRP” value in the experiment on Sus scrofa [6] was “inactive”.
With `CCc1c(C)[nH]c2c1/C(=N/NC(=O)Nc1ccc(Cl)cc1)CCC2`, the inhibition in experiment [1] worked out at 65%. Moreover, in experiment [2], the IC50 is 440 nM.
For the compound `CCc1c(C)[nH]c2c1/C(=N/N(C)C(=O)Nc1ccc(C(C)=O)cc1)CCC2`, in experiment [1], the inhibition was 86%.
With `Cc1[nH]c2c(c1C)/C(=N/NC(=O)Nc1ccc(Cl)cc1)CCC2`, in experiment [1], the inhibition turned out to be 67%. In experiment [2], this compound returned an IC50 of 370 nM.
On to `O=C(N/N=C1\CCCC2=C1C1CCCCC1N2)Nc1ccccc1` (stereo not given), for which the inhibition in experiment [1] was 20%.
For `CCc1[nH]c2c(c1CC)/C(=N/NC(=O)Nc1ccc(SC)cc1)CCC2`, the inhibition in experiment [1] amounted to 56%.
In turn, `CCc1c(C)[nH]c2c1/C(=N/NC(=O)Nc1cccc(C3CCCN3)c1)CCC2` (stereo not given) registered an inhibition in experiment [1] of 60%. This compound also returned an IC50 in experiment [2] of 750 nM.
In experiment [1], `CCc1c(C)[nH]c2c1/C(=N/N(C)C(=O)Nc1ccccc1)CCC2` displayed an inhibition of 65%.
`Cc1[nH]c2c(c1C)/C(=N/NC(=O)Nc1ccc(C(F)(F)F)cc1)CCC2` showed an inhibition in experiment [1] of 63%.
